Measured values published in US20130005698A1, “PHARMACEUTICAL FOR PREVENTING OR TREATING AN INNER EAR DISORDER” (University of Tsukuba, priority 2010, published 2013).

What was measured:
[1] = tested on: high-level noise exposure mice; assay: Evaluation of inner ear disorders in high-level noise exposure mice models (ABR threshold, cochlear hair cell loss); format: in vivo, B6 mice; details: for effect on increase of the auditory brainstem response (ABR) threshold caused by exposure to high-level noise: one week and two weeks after exposure
Method: The test was carried out using high-level noise exposure mice. […] The auditory brainstem response (ABR) threshold was measured immediately before the exposure to high-level noise (initial value). At 1 week and 2 weeks after the exposure for 4 hours, the ABR was measured. For the prevention test, after measuring the ABR threshold at 2 weeks after, the inner ears were excised and fixed so as to allow pathological assessment of the loss of two types of hair cells, or inner and outer hair cells within the cochlea. The pathological assessment of the hair cell loss was carried out on the inner hair cells (one line of inner hair cells is represented by IHC) and outer hair cells (three lines of outer hair cells are represented by OHC 1, 2, and 3 from the inside to outside). The verification was carried out by analysis of variance (Fisher's test as post-hoc test). The mice were divided into two groups: a group exposed to high-level noise (control group, n=10), and a group exposed to high-level noise and administrated with fidarestat at a dose of 32 mg/kg/day (fidarestat-administrated group, n=10). The ABR and pathological assessment were carried out in 10 and 5 mice of each group, respectively. Fidarestat was administered mixed with the feed during the period from two days before to two weeks after the exposure to high-level noise. The mice were divided into five groups: a group exposed to high-level noise (control group, n=6), two group exposed to high-level noise and administrated with fidarestat at doses of 8 mg/kg/day or 32 mg/kg/day (fidarestat-administrated groups, n=6), a group exposed to high-level noise, and administrated with prednisolone at a dose of 1 mg/kg/day (prednisolone-administrated group, n=6), and a group exposed to high-level noise, and administrated of combination with prednisolone at a dose of 1 mg/kg/day and fidarestat at a dose of 32 mg/kg/day (combination use group, n=6). The ABR was carried out in 6 mice of each group. Fidarestat was administered mixed with the feed during the period immediately after to two weeks after the exposure to high-level noise. Prednisolone was orally administered immediately after the exposure to high-level noise.

[2] = tested on: outer hair cells of the organ of Corti; assay: Gentamicin-induced loss of outer hair cells model (cultured organ of Corti); format: cell-based, SD rats; details: 48 hours culture; for loss rate of gentamicin-induced outer hair cells loss: control 50%
Method: After excision of the cochlea from SD rats of 3-5 days old, lateral walls were removed, and then the basal turn of the organ of Corti was extracted. The organ of Corti was incubated overnight, and then cultured in culture solutions containing gentamicin ([…]) and fidarestat at different concentrations (0, 0.05, 0.1, 0.2, 0.5, 1, and 2 μM) for 48 hours. After culturing, the organ of corti was fixed with 4% paraformaldehyde. The culture solution was a Dulbecco's modified eagles medium (DMEM solution) containing 10% fetal bovine serum, HEPES ([…]), and penicillin G ([…]), and the organ was cultured at 37° C., 5% CO2, at a humidity of 95%.

NC(=O)[C@@H]1C[C@]2(NC(=O)NC2=O)c2cc(F)ccc2O1 [fidarestat, (2S,4S)-6-fluoro-2′,5′-dioxospiro[chroman-4,4′-imidazolidine]-2-carboxamide]
therapeutic effect on ABR threshold increase compared to prednisolone-administrated group ([1]; fidarestat 32 mg/kg/day vs prednisolone 1 mg/kg/day): equivalent effect
effect on increase of the loss rate of cochlear outer hair cells ([1]; prophylactic 32 mg/kg/day, two weeks after exposure to high-level noise): significantly inhibited
effect on increase of the auditory brainstem response (ABR) threshold caused by exposure to high-level noise ([1]; prophylactic administration, 32 mg/kg/day mixed with feed from two days before to two weeks after exposure): significantly inhibited
effect on increase of the auditory brainstem response (ABR) threshold caused by exposure to high-level noise ([1]; therapeutic administration, mixed with feed from immediately after to two weeks after exposure): significantly inhibited
loss rate of gentamicin-induced outer hair cells loss ([2]; fidarestat 0.1 μM): significantly reduced
outer hair cells survival ([2]; fidarestat 0.5 μM or more): 75%
loss rate of gentamicin-induced outer hair cells loss ([2]; fidarestat 0.5 μM or more): 25%
